Experimental data: patent publication US9675568B2, “Pharmaceutical compositions” (Symrise AG, priority 2012, dated 2017)

Test system: cell line of human leucemic granulocytes (PMN)
Assay: Respiratory burst: zymosan-triggered release of superoxide anions (ROS) measured with Luminol, with cell numbers
Assay type: cell-based
Settings: for Cell numbers / Released ROS: compared with the standard (=100), average of triplicate determination; for Released ROS: zymosan-triggered, Luminol
Text: In the course of cutaneous inflammations, leukocytes, such as, for example, the polymorphonuclear neutrophilic granulocytes (PMN), are stimulated by peptides, such as, for example, cytokines, to emit messenger substances, such as, for example, leucotriene, which are released from activated or necrotic cells in the dermis. These activated PMNs release not only proinflammatory cytokins, leucotrienes and proteases, but also ROS, such as, for example, superoxides and hypochlorite anions, which have the task of destroying pathogenic microbes or fungi which have penetrated it. This activity of the PMNs during inflammation is known as respiratory burst and can lead to additional tissue damage. To investigate to what extent the amide is able to prevent or reduce respiratory burst, a cell line of human leucemic granulocytes of these PMNS was incubated together with the test substances at 37° C. from 5% by volume of CO2. After the respiratory burst had been triggered by adding a yeast extract (zymosan) to the cell solution, the release of superoxide anions was determined by means of their reaction with Luminol. The values given are the cell numbers and the amount of released ROS in relative percentages compared with the standard as an average value of a measurement series with triplicate determination.

Cell numbers (0.001 % b.w. active): 104 ± 1 relative percentages | Cell numbers (0.01 % b.w. active): 94 ± 3 relative percentages | Cell numbers (0.1 % b.w. active): 93 ± 1 relative percentages
Structure (SMILES): COc1ccc(NC(=O)C2CC(C)CCC2C(C)C)cc1 (centres unmarked) [Menthane carboxylic acid-N-(4-methoxy-phenyl)-amide]
Released ROS (0.001 % b.w. active): 37 ± 25 relative percentages | Released ROS (0.01 % b.w. active): 9 ± 4 relative percentages | Released ROS (0.1 % b.w. active): 8 ± 4 relative percentages | Damage to the granulocytes (summary in words of Table 1): without damaging the granulocytes | Effect on the respiratory burst of human granulocytes (summary in words of Table 1): strong inhibiting effect
